Data set [1] is described as follows: Pharmacokinetics of Compound C128 liposome in rats. It is filed as in vivo. The following applies: C128 liposomes, 10 mg/kg tail vein injection, plasma, non-compartmental; for Vd: male, SD, 10 mg/kg. The protocol:
C128 liposomes: (The liposome was prepared according to the conventional method in the pharmaceutical field, particle size 62.6 nm, polydispersity 0.532).
SD male rats, with average weight of 200 g.
Chromatographic conditions: LC-20A high performance liquid chromatography, SPD-20A variable wavelength UV detector (Shimadzu Corporation, Japan); C18 pre-column; mobile phase: methanol/water (65/35, v/v); flow rate 1 mL/min; detection wavelength 283 nm; column temperature 40° C.
The blood was collected from the orbital sinus of rats and centrifuged for 10 minutes at 3000 r/min, and the plasma was separated. 200 μL of the plasma was accurately sampled, and placed in 1.5 mL EP tube. 600 μL acetonitrile was added. The tube was vortexed for 3 minutes, and centrifuged for 10 minutes at 16000 r/min. 20 μL supernatant was taken for injection of HPLC determination. Chromatograms and peak area were recorded.
Blank plasma (280 μL) was accurately pipetted, and 20 μL of standard solutions of different concentrations of the drug was added to obtain the biological samples of different concentrations of the drug. The samples were treated and measured according to the aforementioned “Processing of the biological samples”. The chromatogram and the peak area were recorded. Linear regression was made by peak area A v.s concentration C (μg/mL) to obtain the standard working curve of Compound C128 in the biological samples.
Three male rats were used, and administered via tail vein injection at a dose of 10 mg/kg. The blood was taken via the orbital sinus after administration of 5 min, 15 min, 30 min, 1 h, 2 h, 4 h, 6 h, 8 h, 10 h, respectively. The samples were treated and measured according to the aforementioned “Processing of the biological samples”. The chromatogram and the peak area were recorded. The measured amount, namely, the drug concentration in plasma, was calculated by putting the peak area of the drug into the standard working curve equation.
The time curve of the drug in plasma was drawn—the area under the plasma drug concentration-time curve (AUC) was calculated by the Log trapezoidal method.

A further data set deals with tubulin. Kind of data set: Inhibitory activity on tubulin polymerization (kit BK011P, Cytoskeleton). It is filed as biochemical. To be noted: 37° C., 60 minutes, fluorescence, Vmax. The protocol: The compounds were formulated into six different concentrations (0.03, 0.3, 0.9, 3, 9, 30 μM). The tubulin polymerization assay kit (Cat. # BK011P, Cytoskeleton) was used for testing. The samples were incubated at 37° C. for 60 minutes, and then fluorescence was collected using Gemini EM Fluorescence Microplate Reader collected at 410-460 nm. Vmax was calculated using SOFTMAX® PRO microplate data acquisition & analysis software. The tubulin inhibition (IC50) of the compound was calculated using GRAPHPAD PRISM® v5.01 graphing and statistics software.

The test system of another data set is HCT-116. Nature of the data set: MTT assay of anti-tumor activity, HCT-116. The following applies: Homo sapiens, HCT-116, 72 h, HCT-116 cells. It is filed as cell-based. As for the experimental part:
(§1) The cells were digested and counted. The cell suspension was prepared in a concentration of 5×10^4 cells/ml. 100 μL of the cell suspension per well was added into 96-well plates (5×10^3 cells per well). The 96-well plates were placed in a 5% CO2 incubator at 37° C. for 24 hours. The drugs were diluted with the complete medium to the desired concentrations. 100 μL of the corresponding drug-containing medium was added into each well. Negative control group, vehicle control group and positive control group were set. The 96-well plates were placed in 5% CO2 incubator at 37° C. for 72 hours. The 96-well plates were subjected to a MTT assay, and measured OD value at λ=490 nm. The measurement procedure comprises adding 20 μL MTT (5 mg/ml) for each well, incubating for 4 hours in an incubator, discarding the medium, dissolving by adding 150 μL DMSO into each well, mixing uniformly by rocking gently for 10 minutes on a shaker, reading OD value of each well in a microplate reader at λ=490 nm. The inhibition rate was calculated, the results were recorded, and the anti-tumor activity was assessed.
On the technique in general: Tetrazolium dyes change colour on reduction, which living cells bring about.

For the next data set, the system named is NCI-H460. Nature of the data set: MTT assay of anti-tumor activity, NCI-H460. It is filed as cell-based. The following applies: Homo sapiens, NCI-H460, 72 h, NCI-H460 cells. As for the experimental part:
as §1

A further data set deals with K562. Kind of data set: MTT assay of anti-tumor activity, K562. It is filed as cell-based. To be noted: Homo sapiens, K562, 72 h, K562 cells. As for the experimental part:
as §1

For another data set, the system named is MCF-7. Kind of data set: MTT assay of anti-tumor activity, MCF-7. It is filed as cell-based. The following applies: Homo sapiens, MCF7, 72 h, MCF-7 cells. As for the experimental part:
as §1

Like-named read-outs stand apart in the source and are kept apart here.

The term AUC(0-t) denotes the area under the concentration-time curve up to a stated or last time point. Read a high AUC(0-t) as high exposure. As usually defined, the Cmax is the highest concentration seen after dosing. The Tmax is the time from dosing to the highest level. For orientation: half-life means the time in which the quantity being followed falls by half. A lower half-life goes with rapid decline. What is called IC50 is the concentration that inhibits the measured activity by half. A low value points to greater potency in that assay. As a reminder, the melting point is the temperature of the solid-liquid transition. `COc1cc(OC)cc(-c2nc[nH]c2-c2ccc(OC)c(F)c2)c1` [Compound C128, 4-(3,5-dimethoxyphenyl)-5-(3-fluoro-4-methoxyphenyl)imidazole] yielded a melting point of 127.1 to 128.9 °C. Besides, in data set [1] (SD male rats), the “AUMC0-inf—obs” value came to 7.569 μg/ml*h^2 and the “Lambda—z” value stood at 0.833 h⁻¹. The Vd in data set [1] (rat, iv, read-out: Vss—obs) was determined as 1.29 L/kg. Further, the Vd in data set [1] (rat, iv, read-out: Vz—obs) is 1.57 L/kg. For the same compound, in data set [1] (rat, iv, SD male rats), the area under the curve AUC(0-t) was 7280 ng·h/mL, the C0 was found to be 20400 ng/mL, the maximum concentration (Cmax) amounted to 14200 ng/mL and the Tmax came to 4.98 min. Moreover, the half-life in data set [1] (rat, iv, SD male rats) is 50 min. In data set [1] (rat, iv, SD male rats, read-out: AUC0-inf—obs), the AUC(0-inf) turned out to be 7770 ng·h/mL. For the same compound, the clearance in data set [1] (rat, iv, SD male rats, read-out: Cl—obs (converted)) is 21.7 mL/min/kg. Also, the MRT inf in data set [1] (rat, iv, SD male rats, read-out: MRT0-inf—obs) is 58.9 min. The same compound displayed a half-maximal inhibitory concentration (IC50) in the data set with tubulin of 590 nM. Also, in the data set on HCT-116, the IC50 is 110 nM. This compound gave an IC50 in the data set on NCI-H460 of 92 nM. The IC50 with K562 was 1.9 nM. Half-maximal inhibition in the data set on MCF-7 (IC50) was put at 1 nM.

(Values after patent US9139574B2, “Tumor targeted drug combretastatin A4 derivative” (Nanjing Sanhome Pharmaceutical Co., Ltd., priority 2011, dated 2015).)
